Data reported in ChEMBL document CHEMBL1146823 (Bioorg Med Chem Lett, 2004).

Assays:
Carbonic anhydrase 4 = target: T1, Carbonic anhydrase 4 (Bos taurus, UniProt Q95323)
T1 sequence (Q95323 whole entry): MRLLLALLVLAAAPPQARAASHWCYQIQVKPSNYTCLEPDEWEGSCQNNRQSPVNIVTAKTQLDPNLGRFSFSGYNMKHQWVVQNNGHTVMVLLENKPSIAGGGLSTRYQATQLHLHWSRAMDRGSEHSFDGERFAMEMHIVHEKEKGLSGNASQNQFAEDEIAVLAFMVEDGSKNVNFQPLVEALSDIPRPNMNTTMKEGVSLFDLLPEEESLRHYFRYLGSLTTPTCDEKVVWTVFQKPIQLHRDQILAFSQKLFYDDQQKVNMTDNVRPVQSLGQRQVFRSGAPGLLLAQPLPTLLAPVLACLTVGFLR
Description: Inhibitory activity of compound against bovine carbonic anhydrase IV

Carbonic anhydrase 1 = Carbonic anhydrase 1 (Homo sapiens, UniProt P00915)
Carbonic anhydrase 1, sequence (P00915 whole entry): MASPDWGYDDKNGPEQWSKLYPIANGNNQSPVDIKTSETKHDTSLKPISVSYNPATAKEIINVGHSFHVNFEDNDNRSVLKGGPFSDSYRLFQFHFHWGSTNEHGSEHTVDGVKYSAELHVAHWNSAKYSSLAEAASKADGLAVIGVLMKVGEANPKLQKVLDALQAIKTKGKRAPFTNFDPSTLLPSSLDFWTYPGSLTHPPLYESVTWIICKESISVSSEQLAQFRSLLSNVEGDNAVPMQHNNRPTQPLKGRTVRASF
Description: Inhibitory activity of compound against human carbonic anhydrase I

| SMILES | IC50 (Carbonic anhydrase 4) [nM] | IC50 (Carbonic anhydrase 1) [nM] |
| --- | --- | --- |
| NS(=O)(=O)c1ccc(S(=O)(=O)Nc2cccc3c(Cl)c[nH]c23)cc1 | 65 | – |
| C[C@]12CC[C@@H]3c4ccc(OS(N)(=O)=O)cc4CCC3[C@@H]1CCC2=O (single isomer, unassigned) [EMATE] | – | 37 |
| Cc1ccc(-c2cc(C(F)(F)F)nn2-c2ccc(S(N)(=O)=O)cc2)cc1 [CELECOXIB] | 290 | – |
| NS(=O)(=O)c1cc(Cl)c(Cl)c(S(N)(=O)=O)c1 [DICHLORPHENAMIDE] | 380 | – |
| CCN1CCCC1CNC(=O)c1cc(S(N)(=O)=O)ccc1OC (configuration not stated) [SULPIRIDE] | 620 | – |
| CC1(C)O[C@@H]2[C@@H](CO[C@@]3(COS(N)(=O)=O)OC(C)(C)O[C@@H]23)O1 [TOPIRAMATE] | 54 | – |
